Converted amounts (≈) assume the structure as drawn. Read-outs that look alike come from different tables or passages of the source.
Columns and labels:
[1] = Water solubility and solution stability in assay buffer; type: physicochemical; conditions: for solution stability at saturation concentration: 0.1 or 1 vol/vol % DMSO in assay buffer; for solubility: pH 7.3, aqueous buffer, kinetic from dmso stock, read-out: saturation concentration (solubility)
Protocol: The solubility and the solution stability of neurelaxin-A, were measured in 0.1 and 1 vol/vol % DMSO at room temperature.
500 μM inhibitor solutions were prepared in assay buffer (40 mM NaCl, 4 mM MgCl2, 20 mM HEPES pH 7.3) containing 0.1 or 1 vol/vol % DMSO.
After 0, 5, 25, 60 and 240 minutes, the samples were centrifuged for 1 minute. Absorption spectra of the supernatants were recorded and the concentrations of the dissolved inhibitors were determined using the extinction coefficient ε^o427=6860 M^−1cm^−1 (FIG. 2A).

zebrafish embryos = experiment: Zebrafish embryo toxicity test; type: in vivo, zebrafish (Danio rerio)
Protocol: Transgenic Tg(−8.0cldnb:lynEGFP)^zf106 (cldnb:gfp) (Haas, P. & Gilmour, D., Developmental Cell 10, 2006, pp 673-680) zebrafish (Danio rerio) were maintained in the animal facility of Eötvös Loránd University. For the experiments investigating the skeletal and heart muscle of zebrafish, 6 dpf embryos were used. For cytotoxicity assays, 2 dpf embryos were dechorionated and placed in E3 medium (5 mM NaCl, 0.33 mM MgCl2, 0.33 mM CaCl2 and 0.17 mM KCl) complemented with the inhibitor in the indicated concentrations.578 PCT
In order to test the cytoxicity of neurelaxin-A in a live animal model, zebrafish embryos were treated with the inhibitor at different concentrations and their development was followed for 72 hours (FIG. 4d).

[2] = test system: human melanoma (M2) cells; experiment: Inhibition of blebbing of M2 cells (blebbing index); type: cell-based
Protocol: For blebbing index determination, M2 cells were incubated for 30 minutes in PBS in every case prior to the addition of inhibitors, in order to initiate extensive blebbing. Blebbing of the cells was monitored before as well as after inhibitor addition to the cells. DMSO concentration was 0.1 vol/vol % in all experiments. Blebbing index was calculated by summing the initiated blebs in a 5-minute interval (starting at the indicated time points) on a given standard area 17 (whole cells with similar size, diameter=12±1 μm) and normalizing it to the blebbing index prior to inhibitor treatment.
As myosin 2 inhibition blocks blebbing of M2 cells (Straight et al., Science, 2003, 299 (5613), pp 1743-7), the blebbing indices ((Charras, G. T., Yarrow, J. C., Horton, M. A., Mahadevan, L. & Mitchison, T. J. Non-equilibration of hydrostatic pressure in blebbing cells. Nature 435, 365-369, doi:10.1038/nature03550 (2005))) of M2 cells were measured in time, after incubating the cells in neurelaxin-A at different concentrations (FIG. 3C).

[3] = test system: HeLa Kyoto H2B-mCherry eGFP-α-tubulin cells; experiment: Inhibition of cytokinesis / cell growth of HeLa cells; type: cell-based, human; conditions: 25 μM, 3rd day
Protocol: For cell growth assays, HeLa Kyoto H2B-mCherry eGFP-α-tubulin cells were grown on an eight-chambered Lab-Tek borosilicate cover glass system, with the initial cell concentration of 100,000 cells/ml. As soon as the cells attached to the surface, they were treated with 0, 2, 5, 10, 25 or 50 μM concentrations of neurelaxin-A. Cells were grown for three days in the presence of the indicated inhibitor concentrations and cell numbers were quantified each day. The final vol/vol % of DMSO in all experiments was 0.1. Data analysis was carried out by Fiji software. On the third day of the experiment, multinuclear cells were visualized by using a Zeiss LSM 710 with a Plan Apo 20×/0.8 objective.
Another important phenotypic effect of non-muscle myosin 2 inhibition is the blocking of cytokinesis and consequently, the increasing number of multinucleated cells and the relatively low total cell number in human cancer cell cultures (Straight et al. Science, 2003, 299 (5613), pp 1743-1747). Therefore, the ratio of multinuclear cells and total cell number of HeLa cells was measured in time at different concentrations of neurelaxin-A (FIGS. 3F and 3G).
Cells incubated in different concentrations of the inhibitors were counted on each day for three days. […] In parallel with this phenomenon, the ratio of multinuclear cells increased with increasing inhibitor concentration.

[4] = target: T1, rabbit skeletal muscle myosin S1 (SkS1) (Oryctolagus cuniculus, UniProt Q28641); experiment: Steady state MgATPase, NADH-coupled assay, SkS1; type: biochemical
T1 construct: SkS1 (rabbit skeletal S1 fragment); from tissue; host or cells: rabbit skeletal muscle
T1 sequence (Q28641 1-843 limits assumed): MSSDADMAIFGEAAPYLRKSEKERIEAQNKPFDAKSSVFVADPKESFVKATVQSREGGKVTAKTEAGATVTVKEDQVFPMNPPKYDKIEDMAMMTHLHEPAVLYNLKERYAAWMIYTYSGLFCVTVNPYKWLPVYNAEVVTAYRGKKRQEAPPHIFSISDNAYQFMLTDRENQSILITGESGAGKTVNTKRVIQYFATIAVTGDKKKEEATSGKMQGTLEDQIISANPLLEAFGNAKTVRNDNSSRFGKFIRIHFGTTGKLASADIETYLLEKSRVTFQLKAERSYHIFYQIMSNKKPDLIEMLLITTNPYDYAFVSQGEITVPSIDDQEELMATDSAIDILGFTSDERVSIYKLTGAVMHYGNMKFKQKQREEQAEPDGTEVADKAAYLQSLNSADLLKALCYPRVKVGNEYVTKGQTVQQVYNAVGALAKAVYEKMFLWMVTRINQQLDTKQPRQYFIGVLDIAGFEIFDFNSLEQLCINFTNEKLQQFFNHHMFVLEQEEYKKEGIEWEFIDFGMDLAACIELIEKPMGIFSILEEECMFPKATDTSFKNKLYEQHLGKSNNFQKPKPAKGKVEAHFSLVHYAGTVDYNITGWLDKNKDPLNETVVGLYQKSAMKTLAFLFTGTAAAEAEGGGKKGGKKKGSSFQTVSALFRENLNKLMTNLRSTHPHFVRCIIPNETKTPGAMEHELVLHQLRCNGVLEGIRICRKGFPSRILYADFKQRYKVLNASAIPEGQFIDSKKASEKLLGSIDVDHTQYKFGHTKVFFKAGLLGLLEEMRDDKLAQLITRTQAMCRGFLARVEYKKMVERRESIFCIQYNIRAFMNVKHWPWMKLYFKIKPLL
T1 sequence (P02602 whole entry partner, the tested form may be a part): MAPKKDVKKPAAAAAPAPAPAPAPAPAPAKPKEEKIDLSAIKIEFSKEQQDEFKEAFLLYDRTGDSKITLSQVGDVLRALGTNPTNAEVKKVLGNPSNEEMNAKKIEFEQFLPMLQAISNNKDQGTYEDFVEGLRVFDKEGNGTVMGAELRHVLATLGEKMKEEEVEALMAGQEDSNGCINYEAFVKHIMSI
Protocol: MgATPase activities of 500 nM (for basal ATPase) or 50 nM (for actin activated ATPase) SkS1 (rabbit skeletal S1 fragment) 23 and 1 μM (for basal ATPase) or 300 nM (for actin activated ATPase) DdMD were measured at increasing concentrations of neurelaxin-A in the absence or in the presence of 45 μM actin for SkS1 or 15 μM actin for DdMD. Measurements were carried out using a pyruvate kinase/lactate dehydrogenase coupled assay (NADH-coupled assay) (Kovacs M. et al., J. Biol. Chem. 2004, 279 (34), pp 35557-35563) at 25° C. or 20° C. in case of SkS1 or DdMD, respectively. Myosin and actin together with the indicated concentration of the inhibitor were pre-incubated for 5 minutes at room temperature and the measurements were initiated with 1 mM ATP. Data were corrected for background ATPase activity of actin. G-actin was prepared accordingly from rabbit skeletal muscle (Spudich, J. A. & Watt, S.; The Journal of Biological Chemistry 246, 1971, pp 4866-4871) and polymerized by 2 mM MgCl2 for 1 hour at room temperature. Measurements were performed in low salt buffer containing 5 mM HEPES, 2 mM MgCl2, 0.1 mM EGTA and 2 mM DTT at pH 7.2 or assay buffer containing 20 mM HEPES, 40 mM NaCl, 4 mM MgCl2 at pH 7.3 for basal ATPase activity measurements with DdMD.
The basal and actin activated ATPase activities of rabbit skeletal muscle myosin S1 (SkS1) and Dictyostelium discoideum myosin 2 motor domain (DdMD) were measured at increasing concentrations of neurelaxin-A (FIGS. 3A and 3B).

Compound: Cc1ccc2c(c1)C(=O)C1(O)CCN(c3ccc(N)cc3)C1=N2 (stereo not shown) [Neurelaxin-A, 1-(4-aminophenyl)-3a-hydroxy-6-methyl-3,3a-dihydro-1H-pyrrolo[2,3-b]quinolin-4(2H)-one]
- solution stability at saturation concentration [1]: remained constant for 4 hours
- solution stability at saturation concentration ([1]; listed as neurelaxin-A): stable for several days
- solubility ([1]; assay buffer with 0.1 vol/vol % DMSO, 0.1 vol/vol % DMSO in assay buffer pH 7.3, room temperature): ~298 µM (≈ 91.6 µg/mL)
- solubility ([1]; assay buffer with 1 vol/vol % DMSO, 1 vol/vol % DMSO in assay buffer pH 7.3, room temperature): ~426 µM (≈ 131 µg/mL)
- visible damage in zebrafish embryos (zebrafish embryos; 72 hours): does not cause any visible damage
- signs of cytotoxicity in zebrafish embryos (zebrafish embryos; after 40 hours, even at high concentrations): did not show any signs of cytotoxicity
- τ, time constant of suppression of blebbing index ([2]; 5 μM): 25.0 ± 4.3 min
- effect on blebbing indices ([2]; 5 μM, within an hour): significant decrease
- time within which blebbing completely stopped ([2]; 10 μM): 40 to 60 min
- τ, time constant of suppression of blebbing index ([2]; 10 μM): 16.8 ± 1.6 min
- time within which blebbing completely stopped ([2]; 25 μM): > 20 min
- τ, time constant of suppression of blebbing index ([2]; 25 μM): 9.9 ± 0.3 min
- time within which blebbing completely stopped ([2]; 50 μM): > 20 min
- τ, time constant of suppression of blebbing index ([2]; 50 μM): 7.8 ± 0.3 min
- effect on cytokinesis / cell number [3]: completely inhibited cytokinesis
- maximal extent of inhibition, actin activated ATPase of SkS1 ([4]; actin activated): 98-100%
- IC50 ([4]; actin activated, 50 nM SkS1, 45 μM actin, 25° C., read-out: IC50 actin activated ATPase activity of SkS1): 470 ± 60 nM
- maximal extent of inhibition, basal ATPase of SkS1 ([4]; basal): 98-100%
- IC50 ([4]; basal, 500 nM SkS1, 25° C., read-out: IC50 basal ATPase of SkS1): 1300 ± 100 nM

Source: patent US10858357B2, “Water-soluble myosin 2 inhibitors for the treatment of neurological, neuropathic or psychiatric diseases” (PARIS SCIENCES ET LETTRES-QUARTIER LATIN, priority 2016, dated 2020)
